Numbers after ± are expanded uncertainties.
Assay: xn = mol fraction of the nth substance listed
Conditions: Liquid, Vibrating tube method

CCCCCCC [heptane] + O=C=O
Conditions	mass density [kg/m3]
322.91 K, 22022 kPa, x2 = 0.7514	759.49 ± 0.38
322.91 K, 23010 kPa, x2 = 0.7514	762.14 ± 0.38
322.91 K, 23983 kPa, x2 = 0.7514	764.78 ± 0.39
322.91 K, 24907 kPa, x2 = 0.7514	767.21 ± 0.4
322.94 K, 3016 kPa, x2 = 0.0218	663.11 ± 0.28
322.94 K, 4008 kPa, x2 = 0.0218	664.28 ± 0.29
322.94 K, 5006 kPa, x2 = 0.0218	665.41 ± 0.29
322.94 K, 5006 kPa, x2 = 0.5085	691.2 ± 0.3
322.94 K, 6002 kPa, x2 = 0.0218	666.44 ± 0.3
322.94 K, 6004 kPa, x2 = 0.5085	693.82 ± 0.3
322.94 K, 7003 kPa, x2 = 0.0218	667.61 ± 0.31
322.94 K, 7005 kPa, x2 = 0.5085	696.6 ± 0.3
322.94 K, 8006 kPa, x2 = 0.0218	668.67 ± 0.32
322.94 K, 8009 kPa, x2 = 0.5085	698.81 ± 0.31
322.94 K, 8995 kPa, x2 = 0.0218	669.76 ± 0.33
322.94 K, 9010 kPa, x2 = 0.5085	701.04 ± 0.32
322.94 K, 10002 kPa, x2 = 0.0218	670.79 ± 0.33
322.94 K, 10006 kPa, x2 = 0.5085	703.24 ± 0.32
322.94 K, 10997 kPa, x2 = 0.5085	705.29 ± 0.33
322.94 K, 11002 kPa, x2 = 0.0218	671.78 ± 0.34
322.94 K, 11999 kPa, x2 = 0.0218	672.82 ± 0.35
322.94 K, 12001 kPa, x2 = 0.5085	707.34 ± 0.34
322.94 K, 12998 kPa, x2 = 0.5085	709.37 ± 0.34
322.94 K, 13000 kPa, x2 = 0.0218	673.79 ± 0.36
322.94 K, 14001 kPa, x2 = 0.0218	674.79 ± 0.37
322.94 K, 14004 kPa, x2 = 0.5085	711.26 ± 0.35
322.94 K, 15002 kPa, x2 = 0.0218	675.77 ± 0.38
322.94 K, 15009 kPa, x2 = 0.5085	713.17 ± 0.36
322.94 K, 15998 kPa, x2 = 0.0218	676.69 ± 0.39
322.94 K, 16004 kPa, x2 = 0.5085	715.02 ± 0.36
322.94 K, 17002 kPa, x2 = 0.0218	677.65 ± 0.4
322.94 K, 17009 kPa, x2 = 0.5085	716.84 ± 0.37
322.94 K, 18003 kPa, x2 = 0.0218	678.53 ± 0.4
322.94 K, 18003 kPa, x2 = 0.5085	718.61 ± 0.37
322.94 K, 18995 kPa, x2 = 0.0218	679.45 ± 0.41
322.94 K, 19009 kPa, x2 = 0.5085	720.34 ± 0.38
322.94 K, 20004 kPa, x2 = 0.5085	722.03 ± 0.39
322.94 K, 20009 kPa, x2 = 0.0218	680.41 ± 0.42
322.94 K, 20999 kPa, x2 = 0.0218	681.28 ± 0.43
322.94 K, 21007 kPa, x2 = 0.5085	723.66 ± 0.39
322.94 K, 21995 kPa, x2 = 0.5085	725.31 ± 0.4
322.94 K, 22005 kPa, x2 = 0.0218	682.14 ± 0.44
322.94 K, 23002 kPa, x2 = 0.5085	726.96 ± 0.41
322.94 K, 23011 kPa, x2 = 0.0218	683.03 ± 0.45
322.94 K, 24002 kPa, x2 = 0.5085	728.57 ± 0.41
322.94 K, 24009 kPa, x2 = 0.0218	683.94 ± 0.46
322.94 K, 24961 kPa, x2 = 0.0218	684.87 ± 0.47
322.94 K, 25011 kPa, x2 = 0.5085	730.19 ± 0.42
322.96 K, 12028 kPa, x2 = 0.9496	666.43 ± 0.92
322.96 K, 13010 kPa, x2 = 0.9496	691.64 ± 0.69
322.96 K, 13994 kPa, x2 = 0.9496	711.79 ± 0.61
322.96 K, 14997 kPa, x2 = 0.9496	728.42 ± 0.56
322.96 K, 16006 kPa, x2 = 0.9496	742.98 ± 0.52
322.96 K, 17008 kPa, x2 = 0.9496	755.69 ± 0.49
322.96 K, 17999 kPa, x2 = 0.9496	766.84 ± 0.47
322.96 K, 19001 kPa, x2 = 0.9496	777.08 ± 0.45
322.96 K, 20001 kPa, x2 = 0.9496	786.26 ± 0.44
322.96 K, 20994 kPa, x2 = 0.9496	794.84 ± 0.43
322.96 K, 21997 kPa, x2 = 0.9496	802.85 ± 0.42
322.96 K, 23019 kPa, x2 = 0.9496	810.46 ± 0.41
322.96 K, 23997 kPa, x2 = 0.9496	817.33 ± 0.4
322.96 K, 24395 kPa, x2 = 0.9496	820.02 ± 0.39
332.7 K, 12055 kPa, x2 = 0.9496	554.72 ± 1.1
332.7 K, 13001 kPa, x2 = 0.9496	599.39 ± 0.97
332.7 K, 14003 kPa, x2 = 0.9496	633.33 ± 0.81
332.7 K, 14995 kPa, x2 = 0.9496	659.11 ± 0.71
332.7 K, 16003 kPa, x2 = 0.9496	680.52 ± 0.64
332.7 K, 16980 kPa, x2 = 0.9496	697.86 ± 0.59
332.7 K, 18002 kPa, x2 = 0.9496	713.39 ± 0.55
332.7 K, 19004 kPa, x2 = 0.9496	727.03 ± 0.53
332.7 K, 19979 kPa, x2 = 0.9496	738.9 ± 0.51
332.7 K, 20995 kPa, x2 = 0.9496	749.98 ± 0.49
332.7 K, 22006 kPa, x2 = 0.9496	760 ± 0.48
332.7 K, 23011 kPa, x2 = 0.9496	769.32 ± 0.46
332.7 K, 24046 kPa, x2 = 0.9496	778.17 ± 0.46
332.7 K, 24505 kPa, x2 = 0.9496	781.98 ± 0.45
332.72 K, 5013 kPa, x2 = 0.3148	672.27 ± 0.29
332.72 K, 6004 kPa, x2 = 0.3148	673.82 ± 0.3
332.72 K, 7000 kPa, x2 = 0.3148	675.27 ± 0.31
332.72 K, 8008 kPa, x2 = 0.3148	676.79 ± 0.32
332.72 K, 9003 kPa, x2 = 0.3148	678.48 ± 0.32
332.72 K, 10007 kPa, x2 = 0.3148	680.17 ± 0.33
332.72 K, 11008 kPa, x2 = 0.3148	681.84 ± 0.34
332.72 K, 11995 kPa, x2 = 0.3148	683.4 ± 0.35
332.72 K, 12994 kPa, x2 = 0.3148	684.97 ± 0.35
332.72 K, 14002 kPa, x2 = 0.3148	686.5 ± 0.36
332.72 K, 15009 kPa, x2 = 0.3148	688.01 ± 0.37
332.72 K, 16005 kPa, x2 = 0.3148	689.47 ± 0.38
332.72 K, 16994 kPa, x2 = 0.3148	690.88 ± 0.39
332.72 K, 17996 kPa, x2 = 0.3148	692.28 ± 0.39
332.72 K, 19002 kPa, x2 = 0.3148	693.66 ± 0.4
332.72 K, 20001 kPa, x2 = 0.3148	695.02 ± 0.41
332.72 K, 21004 kPa, x2 = 0.3148	696.34 ± 0.42
332.72 K, 22014 kPa, x2 = 0.3148	697.64 ± 0.43
332.72 K, 22998 kPa, x2 = 0.3148	698.95 ± 0.43
332.72 K, 24000 kPa, x2 = 0.3148	700.22 ± 0.44
332.72 K, 25010 kPa, x2 = 0.3148	701.53 ± 0.45
332.73 K, 9976 kPa, x2 = 0.7514	687.42 ± 0.38
332.73 K, 11027 kPa, x2 = 0.7514	694.77 ± 0.41
332.73 K, 12005 kPa, x2 = 0.7514	701.07 ± 0.39
332.73 K, 13004 kPa, x2 = 0.7514	706.72 ± 0.39
332.73 K, 14002 kPa, x2 = 0.7514	712.07 ± 0.38
332.73 K, 15007 kPa, x2 = 0.7514	716.96 ± 0.38
332.73 K, 16008 kPa, x2 = 0.7514	721.73 ± 0.38
332.73 K, 17006 kPa, x2 = 0.7514	726.16 ± 0.38
332.73 K, 17992 kPa, x2 = 0.7514	730.25 ± 0.38
332.73 K, 19005 kPa, x2 = 0.7514	734.18 ± 0.39
332.73 K, 19992 kPa, x2 = 0.7514	737.97 ± 0.39
332.73 K, 21048 kPa, x2 = 0.7514	741.67 ± 0.39
332.73 K, 21991 kPa, x2 = 0.7514	745.02 ± 0.39
332.73 K, 22997 kPa, x2 = 0.7514	748.43 ± 0.4
332.73 K, 23997 kPa, x2 = 0.7514	751.86 ± 0.4
332.73 K, 24860 kPa, x2 = 0.7514	754.69 ± 0.4
332.8 K, 3011 kPa, x2 = 0.0218	654.41 ± 0.28
332.8 K, 4004 kPa, x2 = 0.0218	655.67 ± 0.29
332.8 K, 5003 kPa, x2 = 0.0218	656.85 ± 0.3
332.8 K, 6000 kPa, x2 = 0.0218	658.03 ± 0.3
332.8 K, 7004 kPa, x2 = 0.0218	659.2 ± 0.31
332.8 K, 8007 kPa, x2 = 0.0218	660.37 ± 0.32
332.8 K, 9001 kPa, x2 = 0.0218	661.51 ± 0.33
332.8 K, 10004 kPa, x2 = 0.0218	662.62 ± 0.34
332.8 K, 10998 kPa, x2 = 0.0218	663.71 ± 0.35
332.8 K, 12002 kPa, x2 = 0.0218	664.82 ± 0.36
332.8 K, 12996 kPa, x2 = 0.0218	665.83 ± 0.37
332.8 K, 13999 kPa, x2 = 0.0218	666.94 ± 0.37
332.8 K, 15004 kPa, x2 = 0.0218	667.94 ± 0.38
332.8 K, 16005 kPa, x2 = 0.0218	668.95 ± 0.39
332.8 K, 16998 kPa, x2 = 0.0218	669.95 ± 0.4
332.8 K, 18005 kPa, x2 = 0.0218	670.91 ± 0.41
332.8 K, 19003 kPa, x2 = 0.0218	671.91 ± 0.42
332.8 K, 20002 kPa, x2 = 0.0218	672.83 ± 0.43
332.8 K, 21008 kPa, x2 = 0.0218	673.8 ± 0.44
332.8 K, 21997 kPa, x2 = 0.0218	674.76 ± 0.45
332.8 K, 22998 kPa, x2 = 0.0218	675.69 ± 0.46
332.8 K, 24009 kPa, x2 = 0.0218	676.63 ± 0.47
